Experimental data reported in the supplement of paper PMC10307832.

Key:
Assay in all cases: relative viability (nuclei count vs DMSO), 5 days (fraction); higher = more cells survive
Idelalisib + Navitoclax = compound: CC[C@H](Nc1ncnc2[nH]cnc12)c1nc2cccc(F)c2c(=O)n1-c1ccccc1 [Idelalisib] + CC1(C)CCC(c2ccc(Cl)cc2)=C(CN2CCN(c3ccc(C(=O)NS(=O)(=O)c4ccc(N[C@H](CCN5CCOCC5)CSc5ccccc5)c(S(=O)(=O)C(F)(F)F)c4)cc3)CC2)C1 [Navitoclax] (partner 0.5 µM)
Method in brief: (§1)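 Five library-drug doses in √10 steps were combined with a fixed anchor-drug dose, or a single drug was given alone, by pin tool to lung cancer cell lines in 1536-well plates the day after seeding. Nuclei were stained and counted after 5 days. Relative viability is the nuclei count in treated wells over that in vehicle wells, taken as the median of duplicate plates.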

Pemetrexed + Linsitinib = compound: Nc1nc2[nH]cc(CCc3ccc(C(=O)N[C@@H](CCC(=O)O)C(=O)O)cc3)c2c(=O)[nH]1 [Pemetrexed] + C[C@]1(O)C[C@@H](c2nc(-c3ccc4ccc(-c5ccccc5)nc4c3)c3c(N)nccn32)C1 [Linsitinib] (partner 1 µM)
Method in brief: as §1

Idelalisib + Pemetrexed = compound: CC[C@H](Nc1ncnc2[nH]cnc12)c1nc2cccc(F)c2c(=O)n1-c1ccccc1 [Idelalisib] + Nc1nc2[nH]cc(CCc3ccc(C(=O)N[C@@H](CCC(=O)O)C(=O)O)cc3)c2c(=O)[nH]1 [Pemetrexed] (partner 0.2 µM)
Method in brief: as §1

Idelalisib + Bortezomib = compound: CC[C@H](Nc1ncnc2[nH]cnc12)c1nc2cccc(F)c2c(=O)n1-c1ccccc1 [Idelalisib] + CC(C)C[C@H](NC(=O)[C@H](Cc1ccccc1)NC(=O)c1cnccn1)B(O)O [Bortezomib] (partner 0.002 µM)
Method in brief: as §1

| Cell Line | relative viability (Idelalisib + Navitoclax; first compound 0.04 µM) | relative viability (Idelalisib + Navitoclax; first compound 0.1265 µM) | relative viability (Idelalisib + Navitoclax; first compound 0.4 µM) | relative viability (Idelalisib + Navitoclax; first compound 1.265 µM) | relative viability (Idelalisib + Navitoclax; first compound 4 µM) | relative viability (Pemetrexed + Linsitinib; first compound 0.002 µM) | relative viability (Pemetrexed + Linsitinib; first compound 0.006325 µM) | relative viability (Pemetrexed + Linsitinib; first compound 0.02 µM) | relative viability (Pemetrexed + Linsitinib; first compound 0.06325 µM) | relative viability (Pemetrexed + Linsitinib; first compound 0.2 µM) | relative viability (Idelalisib + Pemetrexed; first compound 0.04 µM) | relative viability (Idelalisib + Pemetrexed; first compound 0.1265 µM) | relative viability (Idelalisib + Pemetrexed; first compound 0.4 µM) | relative viability (Idelalisib + Pemetrexed; first compound 1.265 µM) | relative viability (Idelalisib + Pemetrexed; first compound 4 µM) | relative viability (Idelalisib + Bortezomib; first compound 0.04 µM) | relative viability (Idelalisib + Bortezomib; first compound 0.1265 µM) | relative viability (Idelalisib + Bortezomib; first compound 1.265 µM) | relative viability (Idelalisib + Bortezomib; first compound 4 µM) | relative viability (Idelalisib + Bortezomib; first compound 0.4 µM) |
| --- | --- | --- | --- | --- | --- | --- | --- | --- | --- | --- | --- | --- | --- | --- | --- | --- | --- | --- | --- | --- |
| HOP-62 | 1.01 | 1.03 | 1.01 | 1.29 | 1.03 | 0.903 | 0.788 | 0.959 | 0.671 | 0.922 | 0.353 | 0.331 | 0.284 | 0.278 | 0.248 | 0.72 | 0.796 | 0.797 | 0.997 | – |
| LC-2-ad | 0.479 | 0.4 | 0.395 | 0.417 | 0.306 | 0.811 | 0.83 | 0.819 | 0.24 | 0.188 | 0.282 | 0.276 | 0.25 | 0.267 | 0.26 | 1.02 | 0.971 | 1.11 | 0.992 | 0.938 |
| LCLC-97TM1 | 0.468 | 0.453 | – | 0.335 | 0.337 | 0.151 | 0.152 | 0.184 | 0.133 | 0.174 | 0.182 | 0.182 | 0.15 | 0.155 | 0.199 | 0.357 | 0.76 | 0.569 | 0.835 | – |
| LOU-NH91 | 0.741 | 0.699 | 0.667 | 0.463 | 0.617 | 0.888 | 0.852 | 0.987 | 0.688 | 0.598 | 0.369 | 0.414 | 0.392 | 0.408 | 0.408 | 0.483 | 0.39 | 0.437 | 0.472 | 0.512 |
| LU99A | 0.835 | 0.894 | 0.719 | 0.91 | 0.827 | 0.501 | 0.496 | 0.634 | 0.44 | 0.345 | 0.174 | 0.153 | 0.189 | 0.149 | 0.19 | 1.29 | 1.13 | 1.33 | 1.11 | 1.1 |
| LXF-289 | 0.961 | 0.948 | 0.912 | 1.02 | 0.97 | 0.917 | 0.994 | 0.976 | 0.955 | 0.931 | 0.921 | 0.933 | 0.864 | 0.965 | 0.94 | 1.08 | 0.925 | 1.05 | 1.04 | 0.995 |
| NCI-H23 | 0.843 | 0.872 | 0.718 | 0.765 | 0.606 | 0.602 | 0.513 | 0.607 | 0.549 | 0.589 | 0.64 | 0.619 | 0.422 | 0.53 | 0.509 | 1.05 | 0.986 | 1.07 | 0.959 | 0.771 |
| NCI-H322M | 1.2 | 1.2 | 1.09 | 1.25 | 1.04 | 0.967 | 0.778 | 1.06 | 0.938 | 0.809 | 0.648 | 0.634 | 0.639 | 0.628 | 0.623 | 1.13 | 1.34 | 1.16 | 1.29 | 1.08 |
| NCI-H441 | 0.556 | 0.67 | – | 0.467 | 0.574 | 0.553 | 0.572 | 0.454 | 0.414 | 0.269 | 0.247 | 0.233 | – | 0.285 | 0.251 | 0.406 | 0.453 | 0.608 | 0.37 | – |
| NCI-H460 | 1.12 | 1.07 | 1.09 | 1.24 | 1.14 | 0.75 | 0.697 | 0.782 | 0.166 | 0.0543 | 0.0676 | 0.0589 | 0.0612 | 0.0657 | 0.0587 | 0.782 | 1.03 | 1.23 | 1.04 | 1.1 |
| NCI-H520 | 0.981 | 0.944 | 0.983 | 1.24 | 0.798 | 0.946 | 0.911 | 0.926 | 1.09 | 0.956 | 0.75 | 0.595 | 0.567 | 0.637 | 0.451 | 0.464 | 0.552 | 0.634 | 0.278 | 0.367 |
| NCI-H596 | 1.18 | 0.931 | 0.881 | 0.973 | 0.892 | 1.08 | 0.983 | 1.04 | 0.908 | 0.54 | 0.52 | 0.441 | 0.49 | 0.536 | 0.487 | 1 | 1.04 | 1.03 | 0.802 | 1 |
| NCI-H647 | 1.17 | 1.1 | 0.981 | 0.837 | 0.745 | – | 0.886 | 1.29 | 1.08 | 0.332 | 0.166 | 0.144 | 0.14 | 0.154 | 0.159 | 0.998 | 1.13 | 0.905 | 0.737 | 0.813 |
| NCI-H838 | 1 | 1.14 | 1.07 | 1.05 | 0.977 | 0.97 | 0.915 | 1.21 | 0.791 | 0.309 | 0.253 | 0.238 | 0.225 | 0.237 | 0.257 | 0.835 | 0.95 | 1.03 | 0.635 | 0.476 |
| NCI-H1355 | 0.982 | 0.947 | 0.701 | 0.774 | 0.667 | 0.8 | 0.801 | 0.824 | 0.881 | 0.72 | 1.03 | 1.04 | 0.926 | 1.09 | 1.01 | 1.26 | 1.29 | 1.23 | 1.17 | 0.987 |
| NCI-H1437 | 0.956 | 1.13 | 1.08 | 1.17 | 1.11 | 0.898 | 0.965 | 0.967 | 0.49 | 0.252 | 0.34 | 0.315 | 0.311 | 0.317 | 0.268 | 0.567 | 0.532 | 0.833 | 0.37 | 0.452 |
